Reference: article PMC7072677, “Arachidonoylcholine and Other Unsaturated Long-Chain Acylcholines Are Endogenous Modulators of the Acetylcholine Signaling System” (Biomolecules, 2020)
Entries after “also recorded” stand apart in the source; their conditions may differ. Where two headings read alike, the source gives them in different places.

Experiments:
A549 lung cancer cells [1] = details: 1 to 10 µM, predominantly after 48 and 72 h; cited from earlier work
A549 lung cancer cells [2] = details: for decrease of A549 viability: 100 μM, 24 h incubation, MTT; for decrease of cell viability, dose-dependent, maximum: A549 lung cancer cells
human erythrocyte AChE [3] = molecular target: T1, human erythrocyte AChE (Homo sapiens, UniProt P22303); test: Hydrolysis of the substance by AChE (HPLC); type: in vitro ADME; details: 1 mM substance, 0.02 U/mL enzyme, pH 7.5, 25 °C, 40 min
Protocol: (§1) AChE and BChE hydrolysis of AA-CHOL was determined in 100 mM phosphate buffer, pH 7.5 at 25 °C, the AA-CHOL concentration was 1 mM, the incubation time was 40 min. The enzyme concentrations were 0.02 U/mL in the sample. The reverse phase HPLC method was used to estimate the hydrolysis of AA-CHOL. As a control, acetylthiocholine iodide (ATCh) hydrolysis was determined in the same conditions.

equine serum BChE [4] = molecular target: T2, equine serum BChE (Equus caballus, UniProt P81908); test: Hydrolysis of the substance by BChE (HPLC); type: in vitro ADME, horse; details: 1 mM substance, 0.02 U/mL enzyme, pH 7.5, 25 °C
Protocol: as §1

A549 cells = test: Caspase activation and apoptosis staining in A549 cells; type: cell-based; details: A549, 150 μM
human erythrocyte AChE [5] = molecular target: T1, human erythrocyte AChE; test: biochemical; details: for IC50: 10 min preincubation, ATCh 1 mM, N = 11, read-out: AChE IC50, inhibition of ATCh hydrolysis
α7 nAChR = molecular target: T3, α7 nAChR (Homo sapiens, UniProt P36544); test: Ca2+ mobilization (agonist test) in SH-SY5Y cells; type: cell-based
T3 construct: SH-SY5Y cells endogenously expressing α7 nAChR; host or cells: SH-SY5Y
Protocol: Cells were cultured for two days at 37 °C on black 96-well plates. Immediately before the experiments, cells were incubated with […] Fluo-4AM ester reagent and 1.25 mM probenecid (organic anion transporter inhibitor) for 1 h at room temperature. After the incubation, the cells were washed out with the extracellular solution (140 mM NaCl, 2 mM CaCl2, 2.8 mM KCl, 4 mM MgCl2, 20 mM HEPES, 10 mM glucose; pH 7.4). The last washout was supplied with 10 uM α7 nAChR positive allosteric modulator PNU 120596 and tested compound. The excitation of Fluo-4 achieved at 485 nm and fluorescence registered at 535 nm using Hidex Sense Beta Plus (Turku, Finland) multi-well plate fluorimeter. The calcium rise amplitude was measured from the base level of each well.

equine serum BChE [6] = molecular target: T2, equine serum BChE; test: biochemical; details: for IC50: 10 min preincubation, ATCh 1 mM, N = 11, read-out: BChE IC50, inhibition of ATCh hydrolysis
[7] = tested on: sea urchin Strongylocentrotus droebachiensis and S. purpuratus embryo; design: method as in PMID 11443948; details: quenched by QX-222; cited from earlier work
α1β3γ2 GABAAR = molecular target: T4, α1β3γ2 GABAAR (Mus musculus, UniProt P62812+P63080); test: Electrophysiology, GABA-evoked currents in Xenopus oocytes; type: cell-based; details: up to a concentration of 10 μM
T4 construct: expressed in transfected cells; host or cells: Xenopus oocytes, cDNA in PCI vector

[8] = tested on: mouse forelimb grip strength; test: In vivo myorelaxant activity, forelimb grip strength; details: mice
mouse muscle nAChR = molecular target: T5, mouse muscle nAChR (Mus musculus, UniProt P02716+P04756+P20782); test: Two-electrode electrophysiology, ACh-evoked current in Xenopus oocytes; type: cell-based
T5 construct: expressed in transfected cells; host or cells: Xenopus laevis oocytes, cDNA in pRBG4
T5 sequence (P04756 21-457): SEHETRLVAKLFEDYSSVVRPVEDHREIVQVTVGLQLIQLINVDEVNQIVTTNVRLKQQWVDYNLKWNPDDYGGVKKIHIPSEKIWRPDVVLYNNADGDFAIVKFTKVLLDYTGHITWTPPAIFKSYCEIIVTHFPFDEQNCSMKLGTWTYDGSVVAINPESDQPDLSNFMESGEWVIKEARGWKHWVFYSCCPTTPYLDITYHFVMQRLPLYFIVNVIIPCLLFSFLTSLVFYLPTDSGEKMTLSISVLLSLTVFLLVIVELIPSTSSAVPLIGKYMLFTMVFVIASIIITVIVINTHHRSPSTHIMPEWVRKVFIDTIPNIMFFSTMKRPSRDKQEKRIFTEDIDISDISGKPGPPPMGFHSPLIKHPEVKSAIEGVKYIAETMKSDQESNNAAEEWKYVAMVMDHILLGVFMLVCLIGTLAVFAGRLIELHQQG
T5 sequence (P09690 24-501 partner): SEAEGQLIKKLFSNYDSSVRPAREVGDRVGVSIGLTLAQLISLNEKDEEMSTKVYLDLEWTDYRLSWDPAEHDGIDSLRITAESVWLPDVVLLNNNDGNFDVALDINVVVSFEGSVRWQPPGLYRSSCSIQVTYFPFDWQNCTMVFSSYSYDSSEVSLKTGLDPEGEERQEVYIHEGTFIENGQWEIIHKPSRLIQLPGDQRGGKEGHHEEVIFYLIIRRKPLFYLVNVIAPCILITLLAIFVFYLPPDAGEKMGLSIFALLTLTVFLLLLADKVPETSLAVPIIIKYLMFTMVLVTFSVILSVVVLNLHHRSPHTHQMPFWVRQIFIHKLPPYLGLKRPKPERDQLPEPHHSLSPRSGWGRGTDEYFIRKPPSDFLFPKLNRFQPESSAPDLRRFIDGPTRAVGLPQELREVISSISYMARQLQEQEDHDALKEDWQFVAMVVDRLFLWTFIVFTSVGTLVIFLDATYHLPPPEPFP
T5 sequence (P02716 25-520): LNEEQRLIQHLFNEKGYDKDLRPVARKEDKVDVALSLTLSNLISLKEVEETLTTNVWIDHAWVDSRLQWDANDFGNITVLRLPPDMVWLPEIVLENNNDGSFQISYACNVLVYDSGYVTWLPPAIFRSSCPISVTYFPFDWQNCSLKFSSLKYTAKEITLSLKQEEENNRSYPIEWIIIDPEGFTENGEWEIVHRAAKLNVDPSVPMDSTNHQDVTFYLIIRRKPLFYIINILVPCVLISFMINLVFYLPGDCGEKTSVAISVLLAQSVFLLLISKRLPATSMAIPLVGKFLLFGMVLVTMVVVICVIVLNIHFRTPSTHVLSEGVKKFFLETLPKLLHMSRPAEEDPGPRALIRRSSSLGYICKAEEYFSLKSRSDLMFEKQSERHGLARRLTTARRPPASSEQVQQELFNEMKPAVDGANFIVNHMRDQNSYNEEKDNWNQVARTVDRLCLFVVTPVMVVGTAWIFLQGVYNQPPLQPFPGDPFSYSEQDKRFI
T5 sequence (P20782 21-493): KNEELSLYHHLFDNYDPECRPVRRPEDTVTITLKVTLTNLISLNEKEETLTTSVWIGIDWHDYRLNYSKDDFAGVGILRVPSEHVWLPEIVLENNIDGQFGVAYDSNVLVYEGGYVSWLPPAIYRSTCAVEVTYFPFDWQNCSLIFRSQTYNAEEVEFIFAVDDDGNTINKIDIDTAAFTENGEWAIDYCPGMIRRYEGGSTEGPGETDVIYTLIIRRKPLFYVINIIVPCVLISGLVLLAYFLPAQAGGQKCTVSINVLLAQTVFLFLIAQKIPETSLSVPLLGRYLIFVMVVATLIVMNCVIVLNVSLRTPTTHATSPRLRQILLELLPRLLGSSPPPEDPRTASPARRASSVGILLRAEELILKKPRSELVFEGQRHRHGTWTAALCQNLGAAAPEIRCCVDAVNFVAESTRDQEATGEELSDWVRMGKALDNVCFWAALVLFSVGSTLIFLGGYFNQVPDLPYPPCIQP

T2 sequence (P81908 whole entry): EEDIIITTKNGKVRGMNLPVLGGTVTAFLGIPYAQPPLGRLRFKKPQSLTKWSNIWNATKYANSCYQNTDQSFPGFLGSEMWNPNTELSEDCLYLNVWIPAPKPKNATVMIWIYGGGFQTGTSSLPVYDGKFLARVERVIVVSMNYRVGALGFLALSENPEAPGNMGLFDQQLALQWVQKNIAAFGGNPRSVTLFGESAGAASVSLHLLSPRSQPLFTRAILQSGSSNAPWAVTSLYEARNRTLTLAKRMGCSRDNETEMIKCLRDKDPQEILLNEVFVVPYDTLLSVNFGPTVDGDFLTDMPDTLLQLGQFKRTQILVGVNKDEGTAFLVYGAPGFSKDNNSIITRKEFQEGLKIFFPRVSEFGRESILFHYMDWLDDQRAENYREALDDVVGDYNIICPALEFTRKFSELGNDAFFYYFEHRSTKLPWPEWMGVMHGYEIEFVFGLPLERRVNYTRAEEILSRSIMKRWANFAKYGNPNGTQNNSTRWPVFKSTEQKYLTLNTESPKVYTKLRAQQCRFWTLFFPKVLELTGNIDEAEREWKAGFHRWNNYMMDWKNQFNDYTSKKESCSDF
T1 sequence (P22303 32-617 isoform P22303-2 limits assumed): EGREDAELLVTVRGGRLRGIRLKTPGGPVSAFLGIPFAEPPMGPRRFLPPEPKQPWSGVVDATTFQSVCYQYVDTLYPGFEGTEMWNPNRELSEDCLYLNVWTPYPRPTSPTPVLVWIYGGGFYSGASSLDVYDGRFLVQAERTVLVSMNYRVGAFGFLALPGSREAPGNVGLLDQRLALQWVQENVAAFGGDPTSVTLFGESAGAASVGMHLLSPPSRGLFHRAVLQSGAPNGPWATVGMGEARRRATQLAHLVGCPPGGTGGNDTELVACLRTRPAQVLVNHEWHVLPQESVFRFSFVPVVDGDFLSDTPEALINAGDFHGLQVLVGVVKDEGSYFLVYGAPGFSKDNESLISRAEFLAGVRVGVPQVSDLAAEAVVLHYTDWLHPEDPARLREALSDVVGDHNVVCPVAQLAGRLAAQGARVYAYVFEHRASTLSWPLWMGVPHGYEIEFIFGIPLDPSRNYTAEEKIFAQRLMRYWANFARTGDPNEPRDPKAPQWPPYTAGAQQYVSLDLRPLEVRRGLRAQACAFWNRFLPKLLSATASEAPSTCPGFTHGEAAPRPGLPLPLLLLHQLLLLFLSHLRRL
T3 sequence (P36544 23-502): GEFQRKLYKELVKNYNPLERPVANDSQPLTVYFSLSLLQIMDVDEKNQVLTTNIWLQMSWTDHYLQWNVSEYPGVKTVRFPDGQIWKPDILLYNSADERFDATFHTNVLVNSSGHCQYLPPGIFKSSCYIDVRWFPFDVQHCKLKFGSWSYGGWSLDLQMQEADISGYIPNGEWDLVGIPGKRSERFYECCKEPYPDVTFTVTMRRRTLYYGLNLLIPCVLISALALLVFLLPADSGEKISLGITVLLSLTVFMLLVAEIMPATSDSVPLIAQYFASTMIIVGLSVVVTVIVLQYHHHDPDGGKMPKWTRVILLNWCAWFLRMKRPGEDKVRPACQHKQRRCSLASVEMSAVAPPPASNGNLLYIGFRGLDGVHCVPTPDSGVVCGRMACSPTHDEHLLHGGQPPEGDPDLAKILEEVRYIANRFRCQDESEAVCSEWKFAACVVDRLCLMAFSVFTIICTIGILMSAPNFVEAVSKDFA
T4 sequence (P62812 28-455): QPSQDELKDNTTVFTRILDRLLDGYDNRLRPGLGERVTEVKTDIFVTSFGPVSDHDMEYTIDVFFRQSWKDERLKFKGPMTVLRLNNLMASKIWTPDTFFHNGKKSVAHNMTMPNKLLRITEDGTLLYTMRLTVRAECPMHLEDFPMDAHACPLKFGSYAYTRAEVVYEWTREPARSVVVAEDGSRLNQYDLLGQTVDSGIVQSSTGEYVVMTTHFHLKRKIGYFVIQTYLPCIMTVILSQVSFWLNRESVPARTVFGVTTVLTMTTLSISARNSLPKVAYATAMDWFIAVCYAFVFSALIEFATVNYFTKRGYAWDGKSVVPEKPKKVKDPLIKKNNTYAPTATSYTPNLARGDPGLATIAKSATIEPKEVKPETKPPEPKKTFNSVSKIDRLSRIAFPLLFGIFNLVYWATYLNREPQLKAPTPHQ
T4 sequence (P63080 26-473): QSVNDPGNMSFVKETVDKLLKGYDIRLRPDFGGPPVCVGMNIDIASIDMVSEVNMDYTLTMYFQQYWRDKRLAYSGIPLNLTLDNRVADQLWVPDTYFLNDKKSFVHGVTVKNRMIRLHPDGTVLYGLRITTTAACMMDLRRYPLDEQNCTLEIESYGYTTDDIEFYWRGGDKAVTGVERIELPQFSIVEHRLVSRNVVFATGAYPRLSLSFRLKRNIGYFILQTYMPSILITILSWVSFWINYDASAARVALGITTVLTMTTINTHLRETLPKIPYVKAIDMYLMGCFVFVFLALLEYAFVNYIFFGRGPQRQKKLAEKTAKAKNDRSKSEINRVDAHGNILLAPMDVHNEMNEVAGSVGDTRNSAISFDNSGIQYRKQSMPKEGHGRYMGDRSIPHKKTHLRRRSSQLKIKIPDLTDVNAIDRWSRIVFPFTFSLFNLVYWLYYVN
T4 sequence (P22723 39-474 partner): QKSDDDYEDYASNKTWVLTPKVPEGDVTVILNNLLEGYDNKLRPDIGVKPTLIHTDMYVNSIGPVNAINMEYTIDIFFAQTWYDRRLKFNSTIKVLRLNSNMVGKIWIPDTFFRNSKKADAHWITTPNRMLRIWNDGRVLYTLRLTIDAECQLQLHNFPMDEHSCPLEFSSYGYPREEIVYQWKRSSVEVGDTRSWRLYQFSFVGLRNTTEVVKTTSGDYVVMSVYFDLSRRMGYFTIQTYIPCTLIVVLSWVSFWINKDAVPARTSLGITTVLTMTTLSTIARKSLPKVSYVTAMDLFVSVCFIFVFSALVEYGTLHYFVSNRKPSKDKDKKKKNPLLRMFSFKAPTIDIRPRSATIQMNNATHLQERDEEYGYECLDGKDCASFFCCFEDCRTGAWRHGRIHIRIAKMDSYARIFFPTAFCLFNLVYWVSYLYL

## CCN1C[C@]2(COC(=O)c3ccccc3N3C(=O)C[C@H](C)C3=O)CC[C@H](OC)[C@@]34[C@@H]5C[C@H]6[C@H](OC)[C@@H]5[C@](O)(C[C@@H]6OC)[C@@](O)([C@@H](OC)[C@H]23)[C@@H]14 [methyllycaconitine, reference compound]
A549 lung cancer cells [1]
  effect on proliferation of the A549 cells: inhibits the proliferation
A549 lung cancer cells [2]; up to the concentration of 10 μM
  effect on A549 proliferation: did not affect

## CC(=O)SCC[N+](C)(C)C.[I-] [ATCh, acetylthiocholine iodide, reference compound]
Human erythrocyte AChE [3]
  hydrolysis by AChE: fully hydrolyzed
Equine serum BChE [4]; 40 min
  hydrolysis by BChE: fully hydrolyzed

## CCCCCCCC/C=C\CCCCCCCC(=O)OCC[N+](C)(C)C [Ol-CHOL]
A549 lung cancer cells [2]
  decrease of A549 viability: 45%
  decrease of cell viability, dose-dependent, maximum: up to 45%
A549 cells
  phosphatidylserine exposure on the membrane: phosphatidylserine exposure on the membrane
A549 cells; 5 h
  caspase 3 activation: activation
  caspase 8 activation: not caspase 8 activation
  caspase 9 activation: activation

## CCCCC/C=C\C/C=C\CCCCCCCC(=O)OCC[N+](C)(C)C [Ln-CHOL]
Human erythrocyte AChE [5]
  AChE inhibitory activity: Neither Ln-CHOL nor DHA-CHOL had noticeable inhibitory activity
  IC50: > 300 µM
α7 nAChR
  induction of rise in intracellular Ca2+ (agonistic properties): showed no agonistic properties
Equine serum BChE [6]
  IC50: > 300 µM
A549 lung cancer cells [2]
  decrease of A549 viability: 10%
  decrease of cell viability, dose-dependent, maximum: up to 45%

## CCCCC/C=C\C/C=C\C/C=C\C/C=C\CCCC(=O)OCC[N+](C)(C)C [AA-CHOL, Arachidonoylcholine]
[7]
  effect on sea urchin larva: dose-dependently induced the larva immobilization and cell lysis
α1β3γ2 GABAAR
  functional inhibition of α1β3γ2 GABAAR: no functional inhibition
Human erythrocyte AChE [5]
  IC50: 90 ± 1 µM
Human erythrocyte AChE [5]; steady-state kinetics
  type of AChE inhibition: mixed type mechanism; also recorded: mixed-type inhibition
Human erythrocyte AChE [5]; steady-state, Lineweaver-Burk
  αKi (noncompetitive component), AChE: 51.4 ± 4.1 µM
Human erythrocyte AChE [5]; steady-state, Lineweaver-Burk, read-out: Ki (competitive component), AChE
  Ki: 16.7 ± 1.5 µM
α7 nAChR
  induction of rise in intracellular Ca2+ (agonistic properties): showed no agonistic properties
[8]; injection into front paws (intramuscular) 0.5, 1 and 4 mg/kg, 15 min to 4 h
  muscle relaxant effect, grip strength vs control: no differences from the control group; also recorded: no difference from the control; also recorded: does not produce a significant muscle relaxation
[8]; subcutaneous injection 10 and 30 mg/kg, up to 240 min
  muscle relaxant effect, grip strength vs control: No differences with the respective controls; also recorded: no substance activity
Equine serum BChE [6]
  IC50: 170 ± 16 µM
Equine serum BChE [6]; steady-state kinetics
  type of BChE inhibition: mixed type mechanism; also recorded: mixed-type inhibition
Equine serum BChE [6]; steady-state, Lineweaver-Burk
  αKi (noncompetitive component), BChE: 214 ± 17 µM
Equine serum BChE [6]; steady-state, Lineweaver-Burk, read-out: Ki (competitive component), BChE
  Ki: 70.5 ± 6.3 µM
Human erythrocyte AChE [3]
  hydrolysis by AChE: not hydrolyzed
Mouse muscle nAChR
  IC50: 3.16 ± 0.26 µM
A549 lung cancer cells [2]
  decrease of A549 viability: 10%
  decrease of cell viability, dose-dependent, maximum: up to 45%
Equine serum BChE [4]; during 40 min
  hydrolysis by BChE: up to 30%

## CC/C=C\C/C=C\C/C=C\C/C=C\C/C=C\C/C=C\CCC(=O)OCC[N+](C)(C)C [DHA-CHOL, docosahexaenoylcholine]
[7]
  effect on sea urchin larva: dose-dependently induced the larva immobilization and cell lysis
Human erythrocyte AChE [5]
  AChE inhibitory activity: Neither Ln-CHOL nor DHA-CHOL had noticeable inhibitory activity
  IC50: > 300 µM
α7 nAChR
  induction of rise in intracellular Ca2+ (agonistic properties): showed no agonistic properties
Equine serum BChE [6]
  IC50: > 300 µM
A549 lung cancer cells [2]
  decrease of A549 viability: inactive

## CN1CCC[C@H]1c1cccnc1 [Nicotine, reference compound]
A549 lung cancer cells [2]; 15 μM
  effect on A549 proliferation: slightly decreased
A549 lung cancer cells [2]; A549, 90 or 100 μM of Ol-CHOL
  effect on the cytotoxicity of Ol-CHOL: did not affect the cytotoxicity
